Experiments:
NPR-C = target: T1, NPR-C (Homo sapiens, UniProt P17342); experiment: NPR-C affinity assay; assay type: binding; conditions: residual NPR-C affinity, NPR-C expressing Hek293 cells, competition with fluorescein-labelled CNP 27d
T1 construct: expressed in transfected cells; host or cells: Hek293, lentiviral transduction, CMV promoter, puromycin selection
T1 sequence (P17342 27-541): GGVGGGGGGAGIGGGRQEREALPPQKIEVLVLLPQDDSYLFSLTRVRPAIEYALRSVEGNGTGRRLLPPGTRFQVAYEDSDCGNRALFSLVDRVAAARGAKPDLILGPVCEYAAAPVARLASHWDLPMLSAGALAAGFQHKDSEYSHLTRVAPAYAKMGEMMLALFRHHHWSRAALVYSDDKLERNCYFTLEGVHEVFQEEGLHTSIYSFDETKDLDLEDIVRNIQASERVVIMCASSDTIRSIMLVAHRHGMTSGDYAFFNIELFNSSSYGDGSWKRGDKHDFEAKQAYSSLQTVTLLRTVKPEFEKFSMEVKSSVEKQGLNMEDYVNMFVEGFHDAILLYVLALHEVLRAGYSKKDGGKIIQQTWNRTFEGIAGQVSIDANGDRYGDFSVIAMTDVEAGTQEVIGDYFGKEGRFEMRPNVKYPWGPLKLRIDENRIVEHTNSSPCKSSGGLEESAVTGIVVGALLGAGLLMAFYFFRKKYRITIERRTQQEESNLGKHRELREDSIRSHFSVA

NPR-B receptor = target: T2, NPR-B receptor (Mus musculus, UniProt Q6VVW5); experiment: Functional cGMP stimulation in NIH-3T3 cells with CNP variants; assay type: cell-based, murine; conditions: residual NPR-B activity vs non-PEGylated CNP-38, cGMP
T2 construct: These cells express endogenously the NPR-B receptor on the cell surface; endogenous in cells; host or cells: NIH-3T3 (murine embryo fibroblast)
T2 sequence (Q6VVW5 23-1047 limits assumed): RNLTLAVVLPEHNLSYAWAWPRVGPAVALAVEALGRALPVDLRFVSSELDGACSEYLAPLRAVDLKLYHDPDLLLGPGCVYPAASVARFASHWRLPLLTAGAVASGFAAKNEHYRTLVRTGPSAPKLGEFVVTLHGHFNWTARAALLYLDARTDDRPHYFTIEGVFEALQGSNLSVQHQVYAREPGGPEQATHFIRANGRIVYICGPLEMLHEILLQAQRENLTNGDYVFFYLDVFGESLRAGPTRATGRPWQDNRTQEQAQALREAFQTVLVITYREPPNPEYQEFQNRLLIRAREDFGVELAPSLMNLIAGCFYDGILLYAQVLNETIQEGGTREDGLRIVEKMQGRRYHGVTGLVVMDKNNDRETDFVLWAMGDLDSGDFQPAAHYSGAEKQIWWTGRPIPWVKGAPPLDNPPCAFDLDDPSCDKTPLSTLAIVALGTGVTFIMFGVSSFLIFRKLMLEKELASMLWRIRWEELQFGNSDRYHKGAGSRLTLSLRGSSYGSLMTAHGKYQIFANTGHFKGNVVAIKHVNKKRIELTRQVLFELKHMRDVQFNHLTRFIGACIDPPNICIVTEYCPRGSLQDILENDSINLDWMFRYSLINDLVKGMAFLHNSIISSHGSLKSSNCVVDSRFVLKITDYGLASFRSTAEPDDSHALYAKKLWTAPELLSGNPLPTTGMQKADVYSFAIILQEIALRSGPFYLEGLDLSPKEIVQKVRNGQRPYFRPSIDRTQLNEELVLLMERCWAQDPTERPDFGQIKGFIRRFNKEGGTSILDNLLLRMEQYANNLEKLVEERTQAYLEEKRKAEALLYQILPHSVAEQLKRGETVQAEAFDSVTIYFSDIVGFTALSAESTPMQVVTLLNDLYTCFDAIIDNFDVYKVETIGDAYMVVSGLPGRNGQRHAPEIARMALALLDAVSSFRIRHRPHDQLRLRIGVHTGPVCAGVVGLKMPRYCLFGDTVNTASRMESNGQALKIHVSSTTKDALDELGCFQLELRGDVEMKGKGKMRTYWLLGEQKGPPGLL
Experimental: As used herein “EC50” with regard to controlled-release CNP agonist and CNP agonist refers to the concentration of controlled-release CNP agonist and CNP agonist with which a half-maximum cGMP production of NPR-B is elicited. NPR-B activity in the form of its EC50 of the controlled-release CNP agonist, of the released CNP agonist and of CNP-22 is measured by cultivating NIH-3T3 (Murine Embryo Fibroblast cell line) cells which express NPR-B on their cell surface, incubating the cells with the controlled-release CNP agonist, the corresponding released CNP agonist or CNP-22, respectively, and determining the intracellular production of the second messenger cGMP with a standard cGMP assay. In particular the assay is performed as follows: • (1) murine NIH-3T3 cells expressing endogenous NPR-B are cultivated in DMEM F-12 medium with 5% FBS and 5 mM glutamine at 37° C. and 5% CO2; • (2) for each assay 50,000 cells are resuspended in Dulbecco's PBS with IBMX and incubated with either the controlled-release CNP agonist, the corresponding released CNP agonist or CNP-22; each in different concentrations; • (3) after incubating for 30 min at 37° C. and 5% CO2, the cells are lysed and cGMP levels are determined; and • (4) generating an EC50 value from the determined cGMP levels.
Functional activity of CNP variants were determined in a cell-based assay with NIH-3T3 cells (Murine Embryo Fibroblast cell line). These cells express endogenously the NPR-B receptor on the cell surface. Stimulation of the NPR-B receptor with CNP leads to intracellular production of the second messenger cGMP which is detected with a commercially available cGMP assay. NIH-3T3 cells were routinely cultured in DMEM F-12 medium with 5% FBS and 5 mM glutamine at 37° C. and 5% CO2. For each assay, 50,000 cells were resuspended in stimulation buffer (Dulbecco's PBS with IBMX) and incubated with the CNP variants in different concentrations. CNP (dilutions were made in PBS with 0.2% BSA). After incubation of 30 min at 37° C. and 5% CO2, the cells were lyzed and cGMP levels were determined with a commercially available cGMP TR-FRET assay (Cisbio, cGMP kit, Cat. No. 62GM2PEB). PEGylated CNP variants were always characterized in comparison with the non-PEGylated version in the same experiment batch. If possible, evaluation of the residual activity was done via the relative EC50-parameter of the resulting dose-response curve (restricted model with common slope).
11i was incubated under physiological conditions (1 mg CNP-38 eq/mL), as described in Example 20. After 7 d, released CNP-38 was isolated by RP-HPLC and analyzed for bioactivity as described in Example 21.

Row | Substance | IC50 of PEGylated CNP-38/IC50 CNP-38 (NPR-C) | EC50 compound/EC50 CNP-38 (NPR-B receptor)
1 | Permanent Lys26 CNP-38 PEG4×10 kDa Conjugate [Compound 12g] | 143 | >>100
2 | Reversible Lys26 CNP-38 PEG2×20 kDa Conjugate [Compound 10f] | 12 | >>100
